From patent publication US20110082130A1 (LIGAND PHARMACEUTICALS, INC., priority 2006, published 2011)

Target: T1, chimeric human H3 receptor (Homo sapiens, UniProt Q9Y5N1)
T1 construct: made in house; host or cells: Sf9 insect cells (baculovirus); P2 membrane preparation
Experiment: Chimeric human H3 receptor screening GTP binding assay (inhibition of histamine-stimulated GTP-gamma35S binding, Example 8)
Assay type: biochemical
Details: 4 μM of the compound, 1 μM histamine, "†" in Ki of Table II, read-out: percent inhibition of the signal obtained with 1 μM histamine
Summary of the method: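 Values are percent inhibition of 1 μM histamine-stimulated GTP-gamma35S […] binding, with non-specific binding (10 μM GTP-gammaS) subtracted, by compounds tested at 4 μM. Membranes (35 μg) from Sf9 cells expressing chimeric human H3 with G-protein subunits were used in Tris pH 7.4 buffer with 10 μM GDP. Incubation lasted 60 min at room temperature, followed by filtration and scintillation counting.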

T1 sequence (Q9Y5N1 with tags, fused parts or gaps): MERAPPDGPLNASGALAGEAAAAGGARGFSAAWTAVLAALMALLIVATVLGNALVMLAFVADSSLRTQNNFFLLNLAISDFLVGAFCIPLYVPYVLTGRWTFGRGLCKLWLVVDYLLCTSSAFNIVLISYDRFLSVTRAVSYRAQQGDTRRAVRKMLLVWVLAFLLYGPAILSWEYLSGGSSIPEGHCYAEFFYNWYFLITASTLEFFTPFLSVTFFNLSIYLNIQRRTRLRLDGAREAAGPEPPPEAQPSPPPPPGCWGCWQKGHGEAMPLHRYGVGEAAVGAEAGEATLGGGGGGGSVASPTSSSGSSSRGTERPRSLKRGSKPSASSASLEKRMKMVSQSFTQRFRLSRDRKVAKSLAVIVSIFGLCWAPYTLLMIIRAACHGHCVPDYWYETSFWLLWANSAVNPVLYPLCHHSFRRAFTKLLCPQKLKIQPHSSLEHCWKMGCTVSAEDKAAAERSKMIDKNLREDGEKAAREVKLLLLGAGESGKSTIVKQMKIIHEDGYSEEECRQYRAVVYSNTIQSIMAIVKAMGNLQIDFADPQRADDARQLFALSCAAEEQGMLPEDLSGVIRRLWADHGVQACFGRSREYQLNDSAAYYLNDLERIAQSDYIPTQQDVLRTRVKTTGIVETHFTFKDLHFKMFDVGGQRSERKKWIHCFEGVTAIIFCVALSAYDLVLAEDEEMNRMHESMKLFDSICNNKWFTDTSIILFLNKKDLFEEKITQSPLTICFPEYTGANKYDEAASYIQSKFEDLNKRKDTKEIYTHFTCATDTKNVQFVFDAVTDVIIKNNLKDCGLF

Q: Which inhibition at 4 µM does the source give for `CCCCc1ccc(-c2ccc3c(c2)CCN(CC(=O)N2CCN(C4CCCC4)CC2)C3)cc1` [Compound 452, 6-(4-butylphenyl)-2-[2-(4-cyclopentylpiperazin-1-yl)-2-oxoethyl]-1,2,3,4-tetrahydroisoquinoline] here?
A: ≥ 90%

Q: How did the inhibition at 4 µM turn out when `CC(C)(C)c1ccc(-c2ccc3c(c2)CCN(CC(=O)N2CCN(C4CCCC4)CC2)C3)cc1` [Compound 472, 6-(4-tert-butylphenyl)-2-[2-(4-cyclopentylpiperazin-1-yl)-2-oxoethyl]-1,2,3,4-tetrahydroisoquinoline] was run?
A: ≥ 90%

Q: With `Cc1ccc(F)c(-c2ccc3c(c2)CCN(CC(=O)N2CCN(C4CCCCC4)CC2)C3)c1` [Compound 425, 2-[2-(4-cyclohexylpiperazin-1-yl)-2-oxoethyl]-6-(2-fluoro-5-methylphenyl)-1,2,3,4-tetrahydroisoquinoline] as the molecule, how does the inhibition at 4 µM read?
A: ≥ 90%

Q: With `Cc1ccc(-c2ccc3c(c2)CCN(CC(=O)N2CCN(C4CCC4)CC2)C3)c(F)c1` [Compound 420, 2-[2-(4-cyclobutylpiperazin-1-yl)-2-oxoethyl]-6-(2-fluoro-4-methylphenyl)-1,2,3,4-tetrahydroisoquinoline] as the molecule, how does the inhibition at 4 µM read?
A: ≥ 90%

Q: With `CCc1ccc(-c2ccc3c(c2)CCN(CC(=O)N2CCN(C4CCC4)CC2)C3)cc1` [Compound 459, 2-[2-(4-cyclobutylpiperazin-1-yl)-2-oxoethyl]-6-(4-ethylphenyl)-1,2,3,4-tetrahydroisoquinoline] as the molecule, how does the inhibition at 4 µM read?
A: ≥ 90%

Same assay, conditions: Table II "Ki", symbol †, 4 μM of the compound, 1 μM histamine, read-out: percent inhibition of the signal obtained with 1 μM histamine

Q: Which inhibition at 4 µM does the source give for `COc1cc(-c2ccc3c(c2)CCN(CC(=O)N2CCN(C4CCCCC4)CC2)C3)cc(OC)c1OC` [Compound 518, 2-[2-(4-cyclohexylpiperazin-1-yl)-2-oxoethyl]-6-(3,4,5-trimethoxyphenyl)-1,2,3,4-tetrahydroisoquinoline] here?
A: ≥ 90%

Q: For `O=C(CN1CCc2cc(-c3cncnc3)ccc2C1)N1CCN(C2C[C@H]3CC[C@@H]2C3)CC1` (stereo partly drawn) [Compound 623, 2-(2-{4-[(1R,4S)-bicyclo[2.2.1]hept-2-yl]piperazin-1-yl}-2-oxoethyl)-6-pyrimidin-5-yl-1,2,3,4-tetrahydroisoquinoline], which inhibition at 4 µM is on record?
A: ≥ 90%

Q: For `O=C(CN1CCc2cc(-c3ccccc3Oc3ccccc3)ccc2C1)N1CCN(C2CCCC2)CC1` [Compound 576, 2-[2-(4-cyclopentylpiperazin-1-yl)-2-oxoethyl]-6-(2-phenoxyphenyl)-1,2,3,4-tetrahydroisoquinoline], which inhibition at 4 µM is on record?
A: ≥ 90%

Q: `O=C(CN1CCc2cc(-c3ccc(Cl)c(F)c3)ccc2C1)N1CCN(C2CCCCC2)CC1` [Compound 593, 6-(4-chloro-3-fluorophenyl)-2-[2-(4-cyclohexylpiperazin-1-yl)-2-oxoethyl]-1,2,3,4-tetrahydroisoquinoline] was tested. Which inhibition at 4 µM did it give?
A: ≥ 90%

Q: With `COc1ccc(-c2ccc(-c3ccc4c(c3)CCN(CC(=O)N3CCN(C(C)C)CC3)C4)cc2)cc1` [Compound 501, 2-[2-(4-isopropylpiperazin-1-yl)-2-oxoethyl]-6-(4′-methoxybiphenyl-4-yl)-1,2,3,4-tetrahydroisoquinoline] as the molecule, how does the inhibition at 4 µM read?
A: ≥ 90%

Q: How did the inhibition at 4 µM turn out when `COC1CCCN(c2ccc3c(n2)CCN(CC(=O)N2CCN(C4CCC4)CC2)C3)C1` (stereo not shown) [Compound 671, 6-[2-(4-cyclobutylpiperazin-1-yl)-2-oxoethyl]-2-(3-methoxypiperidin-1-yl)-5,6,7,8-tetrahydro-1,6-naphthyridine] was run?
A: ≥ 90%

Q: Which inhibition at 4 µM does the source give for `CC(C)N1CCN(C(=O)CN2CCc3cc(-c4ccc(N(C)C)cc4)ccc3C2)CC1` [Compound 535, 4-{2-[2-(4-isopropylpiperazin-1-yl)-2-oxoethyl]-1,2,3,4-tetrahydroisoquinolin-6-yl}-N,N-dimethylaniline] here?
A: ≥ 90%

Q: With `O=C(CN1CCc2cc(-c3cncnc3)ccc2C1)N1C[C@@H]2C[C@H]1CN2C1CCCC1` (stereo in doubt) [Compound 612, 2-{2-[(1S,4S)-5-cyclopentyl-2,5-diazabicyclo[2.2.1]hept-2-yl]-2-oxoethyl}-6-pyrimidin-5-yl-1,2,3,4-tetrahydroisoquinoline] as the molecule, how does the inhibition at 4 µM read?
A: ≥ 90%
